The subject of data set [1] is O=C1C[C@@H](C(=O)O)NC(=O)N1. Description: purified protein.
Data set [2] concerns the target T1, PiDHODH (dihydroorotate dehydrogenase) (Phytophthora infestans, UniProt D0MUE3).
T1 construct: gene PITG_01913
The data set is described as follows: biochemical.

Data set [3] concerns the target T1, PiDHODH (dihydroorotate dehydrogenase). Description: biochemical. The settings on record: read-out: Activity % PiDHODH.
Substrate in the data set “purified protein”: O=C1C[C@@H](C(=O)O)NC(=O)N1
The data set is described as follows: purified protein. The settings on record: FMN orotate/dihydroorotate site in the α/β-barrel domain.

Read-outs that look alike come from different tables or passages of the source.

The record followed here is paper PMC6611227 (Frontiers in Microbiology, 2019).

T1 sequence (D0MUE3 55-424 limits assumed): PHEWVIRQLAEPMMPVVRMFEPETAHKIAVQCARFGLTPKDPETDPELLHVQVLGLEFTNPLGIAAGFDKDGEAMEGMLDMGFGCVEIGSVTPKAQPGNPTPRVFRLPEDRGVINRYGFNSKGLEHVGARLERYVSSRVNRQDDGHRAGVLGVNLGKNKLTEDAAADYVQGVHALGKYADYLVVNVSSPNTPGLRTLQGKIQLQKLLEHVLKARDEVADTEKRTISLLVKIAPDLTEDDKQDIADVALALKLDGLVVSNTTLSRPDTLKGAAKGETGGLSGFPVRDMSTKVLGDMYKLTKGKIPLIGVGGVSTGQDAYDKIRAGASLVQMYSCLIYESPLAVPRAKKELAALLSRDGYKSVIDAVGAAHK

As to “PiDHODH (dihydroorotate dehydrogenase) (Phytophthora infestans T30-4)”, the Km (as a rule, the substrate concentration at which the rate is half of its maximum) in data set [1] is 57 ± 3 µM. As to `C/C(O)=C(\C#N)C(=O)Nc1ccc(C(F)(F)F)cc1` [A77 1726], in data set [2], the IC50 – broadly, the concentration that gives 50% inhibition – was determined as 79 ± 8 µM. With `COc1c(-c2ccccc2)ccc(NC(=O)C(C#N)=C(C)O)c1Cl` [compound 19, N-(3-chloro-2-methoxybiphenyl-4-yl)-2-cyano-3-hydroxybut-2-enamide], the activity at 500 µM in data set [3] is 2 ± 0.5%. Same read-out and setting: the value for `COc1cc(-c2ccc(Nc3ccccc3C(=O)O)c(OC)c2)ccc1Nc1ccccc1C(=O)O` [Redoxal] was 31 ± 8%.

As for `O=C(O)C1=C(C(=O)Nc2ccc(-c3ccccc3)cc2)CCC1` [compound 1, 2-(4-biphenylylcarbamoyl)-1-cyclopentene-1-carboxylic acid], in data set [3], the activity at 500 µM was 23 ± 4%. Turning to `O=C1C(O)=C(CC=C(Cl)Cl)C(=O)c2ccccc21` [dichloroallyl lawsone], the activity at 500 µM in data set [3] was 30 ± 2%. As for `Cc1cc(Nc2cc(F)c(C(F)(F)F)c(F)c2)n2ncnc2n1` [DSM190, N-(3,5-difluoro-4-(trifluoromethyl)phenyl)-5-methyl-[1,2,4]triazolo[1,5-a]pyrimidin-7-amine], in data set [3], the activity at 500 µM was 36 ± 10%.

In the case of `CC(O)=C(C#N)C(=O)Nc1ccc(-c2ccccc2)cc1Cl` [compound 28, N-(3-chlorobiphenyl-4-yl)-2-cyano-3-hydroxybut-2-enamide], in data set [3], the activity at 500 µM was 1 ± 0.7%.

B1: StDHODH (dihydroorotate dehydrogenase) (Solanum tuberosum; I273V/I299V/P120T/P359Q) (protein)
chain: ASTVDEATFCGWLFSATKLVNPFFAFLDPEVAHRLAVSAAARGWVPREKRTDLPILGLDVWGRRFSNPVGLAAGFDKNAEAVEGLLGLGFGFVEVGSVTPIPQEGNPKPRIFRLPNEGALINRCGFNSEGIVAVAKRLGAQHGKRKLETSSTSSPAGDEVKHGGKAGPGILGVNLGKNKTSEDAAADYVQGVHTLSQYADYLVVNISSPNTPGLRQLQGRKQLKDLVKKVQAARDEMQWGEEGPPPLLVKIAPDLSKQDLEDIAAVALALRVDGLIISNTTIQRPDSVSQNPVAQETGGLSGKPLFNMSTNILKEMYLLTKGRIPLIGCGGISSGEDAYKKIRAGATLVQLYTAFGYGGPALIPNIKAELAHCLEKDGYKSVHEAVGADCR
Turning to B1, in “purified protein”, the Km was found to be 20 ± 1 µM.
